Source: patent US9833497B2, “Human originated EGF domain proteins and use of the same” (CHENGDU SOURCEBIO LIMITED-LIABILITY COMPANY, priority 2013, dated 2017)

Legend:
Format in all cases: cell-based
[1] = tested on: Moraxella catarrhalis; test: MIC against Gram-negative bacteria: Moraxella catarrhalis; settings: 5×10^5 CFU/mL
Outline: (§1)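 Bacteria grown in LB at 37° C to McFarland 0.5, resuspended and seeded at 5×10^5 CFU/mL in 96-well plates. Purified human EGF-domain proteins two-fold serially diluted, triplicate wells; cultured at 37° C, shaking 175 rpm. MIC = lowest protein concentration with no growth.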

[2] = tested on: Serratia marcescens; test: MIC against Gram-negative bacteria: Serratia marcescens; settings: 5×10^5 CFU/mL
Outline: as §1

[3] = tested on: E. coli BL21; test: MIC against Gram-negative bacteria: E. coli BL21; settings: 5×10^5 CFU/mL
Outline: as §1

[4] = tested on: Aeromonas hydrophila; test: MIC against Gram-negative bacteria: Aeromonas hydrophila; settings: 5×10^5 CFU/mL
Outline: as §1

[5] = tested on: Citrobacter diversus; test: MIC against Gram-negative bacteria: Citrobacter diversus; settings: 5×10^5 CFU/mL
Outline: as §1

[6] = tested on: Klebsiella pneumonia; test: MIC against Gram-negative bacteria: Klebsiella pneumonia; settings: 5×10^5 CFU/mL
Outline: as §1

[7] = tested on: Pseudomonas aeruginosa; test: MIC against Gram-negative bacteria: Pseudomonas aeruginosa; settings: 5×10^5 CFU/mL
Outline: as §1

[8] = tested on: Proteus vulgaris; test: MIC against Gram-negative bacteria: Proteus vulgaris; settings: 5×10^5 CFU/mL
Outline: as §1

[9] = tested on: Enterobacter cloacae; test: MIC against Gram-negative bacteria: Enterobacter cloacae; settings: 5×10^5 CFU/mL
Outline: as §1

[10] = tested on: Proteus mirabilis; test: MIC against Gram-negative bacteria: Proteus mirabilis; settings: 5×10^5 CFU/mL
Outline: as §1

[11] = tested on: E. coli DH5α; test: Antibacterial activity: MIC and growth curve against E. coli DH5α in 96-well plate; settings: minimal inhibitory concentration against E. coli DH5α; 96-well plate, 5×10^5 CFU/mL, 37° C., judged after 8 h
Outline: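 Log-phase DH5α (OD600 about 0.5, 37° C, 185 rpm in LB) was pelleted, resuspended in fresh LB and seeded at 5×10^5 CFU/mL with recombinant protein at 50, 25 and 12.5 μg/mL (two-fold series), in triplicate. Plates were shaken at 175 rpm, 37° C, and OD600 was read every 30 min. MIC was the lowest concentration with no growth.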

[12] = 10 h cultivation at 37° C., two-fold serial dilution
[13] = Moraxella catarrhalis, 96-well plate, 37° C., 10 h
[14] = Serratia marcescens, 96-well plate, 37° C., 10 h
[15] = Aeromonas hydrophila, 96-well plate, 37° C., 10 h
[16] = Citrobacter diversus, 96-well plate, 37° C., 10 h
[17] = Klebsiella pneumonia, 96-well plate, 37° C., 10 h
[18] = Pseudomonas aeruginosa, 96-well plate, 37° C., 10 h
[19] = Proteus vulgaris, 96-well plate, 37° C., 10 h
[20] = Enterobacter cloacae, 96-well plate, 37° C., 10 h
[21] = Proteus mirabilis, 96-well plate, 37° C., 10 h

PRT795 (WGFGCNLTCQCLNGGACNTLDGTCTCAPGWRGEKCE; listed as Homo sapiens)
50 µg/mL: MIC (μg/mL) S. marcescens ([2]; S. marcescens, 10 h cultivation at 37° C.) | MIC (μg/mL) C. diversus ([5]; C. diversus, 10 h cultivation at 37° C.) | MIC (μg/mL) K. pneumonia ([6]; K. pneumonia, 10 h cultivation at 37° C.) | MIC (μg/mL) P. aeruginosa ([7]; P. aeruginosa, 10 h cultivation at 37° C.) | MIC [11]
12.5 µg/mL: MIC (μg/mL) E. cloacae ([9]; E. cloacae, 10 h cultivation at 37° C.)
25 µg/mL: MIC (μg/mL) M. catarrhalis ([1]; M. catarrhalis, 10 h cultivation at 37° C.) | MIC (μg/mL) E. coli BL21 ([3]; 10 h cultivation at 37° C.) | MIC (μg/mL) A. hydrophila ([4]; A. hydrophila, 10 h cultivation at 37° C.) | MIC (μg/mL) P. vulgaris ([8]; P. vulgaris, 10 h cultivation at 37° C.) | MIC (μg/mL) P. mirabilis ([10]; P. mirabilis, 10 h cultivation at 37° C.)

PRT1098 (DIDNCQSHQCANGATCISHTNGYSCLCFGNFTGKFCR; listed as Homo sapiens)
50 µg/mL: MIC S. marcescens [2, 12]
25 µg/mL: MIC M. catarrhalis [1, 12] | MIC A. hydrophila [4, 12] | MIC P. vulgaris [8, 12]
12.5 µg/mL: MIC E. coli BL21 [3, 12] | MIC C. diversus [5, 12] | MIC K. pneumonia [6, 12] | MIC P. aeruginosa [7, 12] | MIC E. cloacae [9, 12] | MIC P. mirabilis [10, 12] | MIC [11]

PRT690 (EAEECGILDGCTNGRCVRVPEGFTCRCFDGYRLDMTRMACV; listed as Homo sapiens)
25 µg/mL: MIC A. hydrophila ([4]; 96-well plate, 37° C., 10 h) | MIC C. diversus ([5]; 96-well plate, 37° C., 10 h) | MIC K. pneumonia ([6]; 96-well plate, 37° C., 10 h) | MIC P. aeruginosa ([7]; 96-well plate, 37° C., 10 h) | MIC [11]
50 µg/mL: MIC M. catarrhalis ([1]; 96-well plate, 37° C., 10 h) | MIC E. coli BL21 ([3]; 96-well plate, 37° C., 10 h) | MIC P. vulgaris ([8]; 96-well plate, 37° C., 10 h)
12.5 µg/mL: MIC S. marcescens ([2]; 96-well plate, 37° C., 10 h) | MIC E. cloacae ([9]; 96-well plate, 37° C., 10 h) | MIC P. mirabilis ([10]; 96-well plate, 37° C., 10 h)

PRT1360 (NKPLCLNNCYNRGRCVENECVCDEGFTGEDCS; listed as Homo sapiens)
12.5 µg/mL: MIC against C. diversus ([5]; Citrobacter diversus, 10 h cultivation at 37° C.) | MIC against E. cloacae ([9]; Enterobacter cloacae, 10 h cultivation at 37° C.) | MIC against P. mirabilis ([10]; Proteus mirabilis, 10 h cultivation at 37° C.) | MIC [11]
25 µg/mL: MIC against E. coli BL21 ([3]; 10 h cultivation at 37° C.) | MIC against K. pneumonia ([6]; Klebsiella pneumonia, 10 h cultivation at 37° C.) | MIC against P. vulgaris ([8]; Proteus vulgaris, 10 h cultivation at 37° C.)
50 µg/mL: MIC against M. catarrhalis ([1]; Moraxella catarrhalis, 10 h cultivation at 37° C.) | MIC against S. marcescens ([2]; Serratia marcescens, 10 h cultivation at 37° C.) | MIC against A. hydrophila ([4]; Aeromonas hydrophila, 10 h cultivation at 37° C.) | MIC against P. aeruginosa ([7]; Pseudomonas aeruginosa, 10 h cultivation at 37° C.)

PRT1317 (APNPCWPSPCSLLAQCSVSPKGQAQCHCPENYHGDGMVCL; listed as Homo sapiens)
25 µg/mL: MIC against M. catarrhalis [1, 13] | MIC against A. hydrophila [4, 15] | MIC against K. pneumonia [6, 17]
12.5 µg/mL: MIC against S. marcescens [2, 14] | MIC against E. coli BL21 ([3]; 96-well plate, 37° C., 10 h) | MIC against E. cloacae [9, 20] | MIC against P. mirabilis [10, 21]
50 µg/mL: MIC against C. diversus [5, 16] | MIC against P. aeruginosa [7, 18] | MIC against P. vulgaris [8, 19] | MIC [11]

PRT664 (DINECLTLGLCKDAECVNTRGSYLCTCRPGLMLDPSRSRCV; listed as Homo sapiens)
12.5 µg/mL: MIC C. diversus ([5]; 96-well plate, 37° C., 10 h) | MIC K. pneumonia ([6]; 96-well plate, 37° C., 10 h) | MIC P. vulgaris ([8]; 96-well plate, 37° C., 10 h)
50 µg/mL: MIC E. coli BL21 ([3]; 96-well plate, 37° C., 10 h) | MIC A. hydrophila ([4]; 96-well plate, 37° C., 10 h) | MIC P. mirabilis ([10]; 96-well plate, 37° C., 10 h)
25 µg/mL: MIC M. catarrhalis ([1]; 96-well plate, 37° C., 10 h) | MIC S. marcescens ([2]; 96-well plate, 37° C., 10 h) | MIC P. aeruginosa ([7]; 96-well plate, 37° C., 10 h) | MIC E. cloacae ([9]; 96-well plate, 37° C., 10 h) | MIC [11]

PRT1069 (VTNPCDRKKCEWLCLLSPSGPVCTCPNGKRLDNGTCV; listed as Homo sapiens)
25 µg/mL: MIC M. catarrhalis [1, 12] | MIC S. marcescens [2, 12] | MIC K. pneumonia [6, 12] | MIC P. vulgaris [8, 12]
50 µg/mL: MIC E. coli BL21 [3, 12] | MIC C. diversus [5, 12] | MIC E. cloacae [9, 12]
12.5 µg/mL: MIC A. hydrophila [4, 12] | MIC P. aeruginosa [7, 12] | MIC P. mirabilis [10, 12] | MIC [11]

PRT133 (CRGHCSSYGKLCRNGGKCRERPIGFFCDCTFSAYTGPFCS; listed as Homo sapiens)
12.5 µg/mL: MIC (μg/mL) S. marcescens [2, 14] | MIC (μg/mL) E. coli BL21 ([3]; 96-well plate, 37° C., 10 h) | MIC (μg/mL) E. cloacae [9, 20] | MIC (μg/mL) P. mirabilis [10, 21]
25 µg/mL: MIC (μg/mL) M. catarrhalis [1, 13] | MIC (μg/mL) A. hydrophila [4, 15] | MIC (μg/mL) K. pneumonia [6, 17]
50 µg/mL: MIC (μg/mL) C. diversus [5, 16] | MIC (μg/mL) P. aeruginosa [7, 18] | MIC (μg/mL) P. vulgaris [8, 19] | MIC [11]

PRT23 (KKNPCNAEFQNFCIHGECKYIEHLEAVTCKCQQEYFGERCG; listed as Homo sapiens)
50 µg/mL: MIC (μg/mL) S. marcescens [2, 14] | MIC (μg/mL) C. diversus [5, 16] | MIC (μg/mL) P. mirabilis [10, 21]
25 µg/mL: MIC (μg/mL) M. catarrhalis [1, 13] | MIC (μg/mL) E. coli BL21 ([3]; 96-well plate, 37° C., 10 h) | MIC (μg/mL) P. vulgaris [8, 19] | MIC (μg/mL) E. cloacae [9, 20]
12.5 µg/mL: MIC (μg/mL) A. hydrophila [4, 15] | MIC (μg/mL) K. pneumonia [6, 17] | MIC (μg/mL) P. aeruginosa [7, 18] | MIC [11]

PRT643 (RVVICHLPCMNGGQCSSRDKCQCPPNFTGKLCQ; listed as Homo sapiens)
25 µg/mL: MIC M. catarrhalis ([1]; 96-well plate, 37° C., 10 h) | MIC E. coli BL21 ([3]; 96-well plate, 37° C., 10 h) | MIC A. hydrophila ([4]; 96-well plate, 37° C., 10 h) | MIC K. pneumonia ([6]; 96-well plate, 37° C., 10 h) | MIC P. vulgaris ([8]; 96-well plate, 37° C., 10 h)
12.5 µg/mL: MIC E. cloacae ([9]; 96-well plate, 37° C., 10 h) | MIC P. mirabilis ([10]; 96-well plate, 37° C., 10 h) | MIC [11]
50 µg/mL: MIC S. marcescens ([2]; 96-well plate, 37° C., 10 h) | MIC C. diversus ([5]; 96-well plate, 37° C., 10 h) | MIC P. aeruginosa ([7]; 96-well plate, 37° C., 10 h)
